Reference: patent publication US12692232B2, “Indole carboxamide compound, preparation therefor and use thereof” (NANJING RUISHUNING MEDICAL TECHNOLOGY CO., LTD., priority 2021, dated 2026)
pKd: −log10 of the molar value.

Key:
[1] = biological target: T1, TRPC7 protein (Homo sapiens, UniProt Q9HCX4); experiment: MST binding to TRPC7 protein; conditions: for pKd: MST; for affinity strength to TRPC6 protein higher than to TRPC7 protein: MST Kd ratio
T1 sequence (Q9HCX4 1-862): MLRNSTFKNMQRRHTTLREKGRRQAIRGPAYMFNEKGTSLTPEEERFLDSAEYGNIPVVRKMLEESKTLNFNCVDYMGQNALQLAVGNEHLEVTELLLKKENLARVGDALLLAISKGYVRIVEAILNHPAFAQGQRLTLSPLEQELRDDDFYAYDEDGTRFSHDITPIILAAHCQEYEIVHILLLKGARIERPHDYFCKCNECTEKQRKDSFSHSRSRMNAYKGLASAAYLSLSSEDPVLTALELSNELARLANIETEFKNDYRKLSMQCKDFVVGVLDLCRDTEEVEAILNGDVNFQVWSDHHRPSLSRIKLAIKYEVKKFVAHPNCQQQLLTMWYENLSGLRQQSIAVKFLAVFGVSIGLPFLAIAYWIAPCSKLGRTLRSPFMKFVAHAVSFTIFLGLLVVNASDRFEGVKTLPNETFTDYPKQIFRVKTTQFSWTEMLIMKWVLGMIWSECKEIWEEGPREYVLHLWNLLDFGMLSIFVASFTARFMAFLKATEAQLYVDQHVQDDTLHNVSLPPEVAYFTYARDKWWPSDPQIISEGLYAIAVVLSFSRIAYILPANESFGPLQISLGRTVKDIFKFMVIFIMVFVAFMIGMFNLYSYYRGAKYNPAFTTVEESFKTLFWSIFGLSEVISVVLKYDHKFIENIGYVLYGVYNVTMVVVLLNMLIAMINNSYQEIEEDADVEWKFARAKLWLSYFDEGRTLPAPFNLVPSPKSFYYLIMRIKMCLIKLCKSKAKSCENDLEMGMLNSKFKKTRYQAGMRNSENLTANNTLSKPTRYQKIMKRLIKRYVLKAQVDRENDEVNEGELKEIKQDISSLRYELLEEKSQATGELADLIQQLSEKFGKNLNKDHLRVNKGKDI
Procedure: (§1) Preparation and labelling of protein solution: TRPC6 protein dry powder (Alomone Labs, Israel) was prepared into a protein mother solution at a concentration of 10 μM using PBS-Buffer, and 35 μL of the protein stock solution was taken to the Buffer exchange A column, and centrifuged to obtain the Tris-removed protein. 34 μL Labelling Buffer was added to the Tris-removed protein according to the instructions of the Protein Fluorescent Labelling Kit (model L001). After mixing well, 3 μL of NT-647-NHS fluorescent dye was added and thus obtained mixture was incubated for 20 minutes. The protein-dye mixture was transferred to the purification B column, 300 μL of PBS-Buffer was added, and the target protein, i.e. fluorescent labelled protein TRPC6, was collected by centrifugation (with a final concentration of about 2 μM). 180 μL of target protein was mixed with 1620 μL of PBS-Buffer, and then 9 μl of Tween-20 were added thereto. Thus the resulting mixture was mixed and then centrifuged to obtain the target protein solution.
Preparation of compound solutions: the compounds were prepared separately with DMSO to storage solutions with a concentration of […]. 10 μL of each storage solution was placed in a […] EP tube, 90 μL of PBS was added thereto and the resulting mixture was thoroughly mixed to prepare 100 μL of working solution at a concentration of 1 μM for later use. Ligand gradient dilutions were made for a total of 16 concentrations, and 10 μL of 10% DMSO-Buffer was added to each of the 15 gradients except gradient 1, followed by the addition of 10 μL of ligand working solution to gradients 1 and 2, respectively. The liquid in tube 2 was mixed and then 10 μL therein was taken into tube 3, and dilution was carried out in this manner until tube 16. Tube 16 was mixed and 10 μL therein was taken and discarded, and the remainder was kept for later use.
Detection and analysis: 10 μL of protein solution was added to the 16 compound gradient dilutions respectively and mixed, and the resultant mixtures were transferred to capillary tubes sequentially to start detection on machine. After loading the data, the MST analysis model and Kd Model were selected to obtain the fitting curve and dissociation constant (Kd).
The binding ability of the compounds of the present invention (as exemplified by the compounds 1-1 and 2-1 obtained in Examples 1 and 3) for other TRPC proteins (e.g., TRPC1, TRPC3, TRPC4, TRPC5, and TRPC7) was determined using the microscale thermophoresis (MST) method. The method was as follows:
(§2) The affinity of the compounds of the present invention with TRPC1, TRPC3, TRPC4, TRPC5 and TRPC7 proteins, respectively, was determined by the same method as in Example 5.

[2] = biological target: T2, TRPC4 protein (Homo sapiens, UniProt Q9UBN4); experiment: MST binding to TRPC4 protein
T2 sequence (Q9UBN4 1-977): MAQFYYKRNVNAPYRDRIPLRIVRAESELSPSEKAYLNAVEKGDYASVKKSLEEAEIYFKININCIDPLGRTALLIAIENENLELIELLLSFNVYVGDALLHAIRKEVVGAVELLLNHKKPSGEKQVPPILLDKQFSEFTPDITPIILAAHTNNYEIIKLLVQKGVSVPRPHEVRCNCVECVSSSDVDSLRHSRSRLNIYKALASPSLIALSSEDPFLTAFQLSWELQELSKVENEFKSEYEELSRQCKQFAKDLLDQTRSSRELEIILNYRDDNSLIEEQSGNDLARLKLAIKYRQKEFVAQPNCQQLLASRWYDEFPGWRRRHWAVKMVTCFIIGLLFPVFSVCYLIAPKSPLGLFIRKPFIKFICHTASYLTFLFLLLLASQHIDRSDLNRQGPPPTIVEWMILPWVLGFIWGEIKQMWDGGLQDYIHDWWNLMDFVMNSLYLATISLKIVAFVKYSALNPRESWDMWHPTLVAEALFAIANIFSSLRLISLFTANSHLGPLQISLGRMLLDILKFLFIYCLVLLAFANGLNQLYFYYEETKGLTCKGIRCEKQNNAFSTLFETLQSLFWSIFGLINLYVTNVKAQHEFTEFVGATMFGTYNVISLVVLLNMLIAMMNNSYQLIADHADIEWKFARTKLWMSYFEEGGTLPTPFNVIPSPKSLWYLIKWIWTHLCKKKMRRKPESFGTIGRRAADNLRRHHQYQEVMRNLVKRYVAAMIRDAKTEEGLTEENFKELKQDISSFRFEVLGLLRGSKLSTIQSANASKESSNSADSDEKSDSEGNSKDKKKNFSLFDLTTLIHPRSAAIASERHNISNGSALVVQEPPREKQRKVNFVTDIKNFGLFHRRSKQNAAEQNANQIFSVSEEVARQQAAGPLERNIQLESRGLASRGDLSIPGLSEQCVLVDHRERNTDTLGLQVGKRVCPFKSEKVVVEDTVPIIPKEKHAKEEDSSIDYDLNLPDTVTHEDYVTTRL
Procedure: as §1, with “Thus the resulting mixture was mixed and then centrifuged to obtain the target protein solution.” left out
The binding ability of the compounds of the present invention (as exemplified by the compounds 1-1 and 2-1 obtained in Examples 1 and 3) for other TRPC proteins (e.g., TRPC1, TRPC3, TRPC4, TRPC5, and TRPC7) was determined using the microscale thermophoresis (MST) method. […]
as §2

Cn1c(C(=O)NCCC(=O)O)cc2ccccc21 [3-[(1-methyl-1H-indole-2-carbonyl)amino]propionic acid, reference compound]
pKd [1]: 5.98
affinity strength to TRPC6 protein higher than to TRPC7 protein [1]: 35 fold

CC(=O)OCCCNC(=O)c1c(C=O)c2ccccc2n1C [compound 1-1, propyl 3-[(3-formyl-1-methyl-1H-indole-2-carbonyl)amino]acetate]
Kd for binding to TRPC4 protein [2]: cannot be measured
pKd [1]: 5.52
affinity strength to TRPC6 protein higher than to TRPC7 protein [1]: 254 fold

Cn1c(C(=O)NCCCOC(=O)c2ccccc2)c(C=O)c2ccccc21 [compound 2-1]
Kd for binding to TRPC4 protein [2]: cannot be measured
pKd [1]: 5.49
affinity strength to TRPC6 protein higher than to TRPC7 protein [1]: 160 fold
